The values that follow come from patent US20260069539A1, “LIPIDOID COMPOUNDS AND RELATED COMPOSITIONS AND USES” (Poseida Therapeutics, Inc., priority 2023, published 2026).

Data set [1] relates to liver cells. The data set can be described thus: In vivo LNP delivery of DNA encoding firefly luciferase, bioluminescent imaging (BLI) at 48 hr. More on the design: species or system BALB/C mice. As to conditions: for Total Flux: Example 103, 0.5 mg/kg DNA intravenous, BLI at 48 hr; for Mean Luciferase Flux: DNA encoding firefly luciferase, 48 hr. On the procedure:
Adult BALB/C mice (n=3) were administered 0.5 mg/kg of DNA encoding firefly luciferase (Nature Technology Corp) formulated in a LNP composition listed in Table 4. One group of mice was treated with vehicle (PBS, Thermo Fisher Scientific, USA) as a negative control.
The location and extent of luciferase expression in treated and control mice were determined at 48 hr for DNA delivery by bioluminescent imaging (BLI) of anesthetized mice using an IVIS Lumina in vivo imaging system (Perkin Elmer) according to the manufacturer's instructions. Briefly, mice were anesthetized using isoflurane in oxygen, and placed supine on a heated stage. Mice were then administered D-luciferin (Perkin-Elmer #122799) IP, and BLI was performed.
The location and extent of luciferase expression in treated and control mice were determined at 48 hr for DNA by bioluminescent imaging (BLI) of anesthetized mice using an IVIS Lumina in vivo imaging system (Perkin Elmer) according to the manufacturer's instructions. Briefly, mice were anesthetized using isoflurane in oxygen, and placed supine on a heated stage. Mice were then administered D-luciferin (Perkin-Elmer #122799) IP, and BLI was performed. […]
Body weight loss (BWL) measurements were taken at 24 hrs post administration and luciferase expression was measured by whole body luminescence imaging (BLI) at 48 hours post-administration. […]
Luciferase expression was measured by whole body luminescence imaging (BLI) at 48 hours post-administration.

A short description of data set [2]: Body weight change / body weight loss 24 hours post-administration of LNP. The format is in vivo, BALB/C mice. As for the experimental part:
In addition, the body weight of mice treated with LNP compositions of the present disclosure prepared as described in Example 77 was assessed prior to intravenous administration and 24 hours post-administration and the body weights at baseline and post-treatment were compared.
In addition, the body weight of mice treated with LNP compositions of the present disclosure was assessed prior to intravenous administration and 24 hours post-administration and the body weights at baseline and post-treatment were compared.
Body weight loss (BWL) measurements were taken at 24 hrs post administration and luciferase expression was measured by whole body luminescence imaging (BLI) at 48 hours post-administration.
(§1) Blood was drawn from control and treated mice 4 hrs post-administration for cytokine analysis, body weight loss (BWL) measurements were taken at 24 hrs post administration and luciferase expression was measured by whole body luminescence imaging (BLI) at 48 hours post-administration.

The subject of data set [3] is liver cells. Kind of data set: In vivo LNP delivery of fLuciferase mRNA, bioluminescent imaging (BLI) at 4 hr. More on the design: species or system BALB/C mice. As to conditions: for Mean Luciferase Flux: 0.5 mg/kg fLuc mRNA i.v., 4 hr. As for the experimental part: Adult female BALB/C mice (n=3/group) were intravenously administered 0.5 mg/kg of 5′-CleanCap—fLuciferase mRNA (TriLink Biotech) formulated with the LNP compositions shown in Table 6. One group of mice was treated with vehicle (PBS, Thermo Fisher Scientific, USA) as a negative control.
The location and extent of luciferase expression in treated and control mice were determined at 4 hr for mRNA and 48 hr for DNA by bioluminescent imaging (BLI) of anesthetized mice using an IVIS Lumina in vivo imaging system (Perkin Elmer) according to the manufacturer's instructions. Briefly, mice were anesthetized using isoflurane in oxygen, and placed supine on a heated stage. Mice were then administered D-luciferin (Perkin-Elmer #122799) IP, and BLI was performed.
(§2) The location and extent of luciferase expression in treated and control mice were determined at 4 hr by bioluminescent imaging (BLI) of anesthetized mice using an IVIS Lumina in vivo imaging system (Perkin Elmer) according to the manufacturer's instructions. Briefly, mice were anesthetized using isoflurane in oxygen, and placed supine on a heated stage. Mice were then administered D-luciferin (Perkin-Elmer #122799) IP, and BLI was performed.
as §2
The location and extent of luciferase expression in treated and control mice were determined at 4 hr by bioluminescent imaging (BLI) of anesthetized mice using an IVIS Lumina in vivo imaging system (Perkin Elmer) according to the manufacturer's instructions.
Briefly, mice were anesthetized using isoflurane in oxygen, and placed supine on a heated stage. Mice were then administered D-luciferin (Perkin-Elmer #122799) IP, and BLI was performed.
as §2

The subject of the next data set is pcsk9 protein. The data set can be described thus: Serum Pcsk9 ELISA 7 days after LNP delivery of Cas-CLOVER mRNA and pcsk9 gRNAs (in vivo gene editing). As to conditions: serum 7 days. More on the design: species or system mouse. On the procedure:
In two separate experiments, each group of adult female BALB/C mice (n=2/group) was intravenously co-administered mRNA encoding 5′-CleanCap-5MeC-Cas-CLOVER (SEQ ID NO: 5) and a pair of gRNAs (SEQ ID NOs: 6 and 7) targeted to the first exon of the mouse pcsk9 gene.
After seven days post-administration, blood samples were drawn from the subjects. Briefly, 500 μL of blood was collected after euthanasia via cardiac puncture using 2 ml syringes and 25G needles, transferred to microcentrifuge tubes, incubated at room temperature for 1 hour, and centrifuged at 1500 g for 15 minutes to separate the cellular fraction from serum. Serum fraction (200 μL) was transferred to a new tube and stored at −80C until further analysis.
Serum levels of the pcsk9 protein in the mice were measured 7 days after administration. Results are shown in Table 23 for the first experiment and Table 24 for the second experiment. Briefly, a mouse Pcsk9 ELISA kit (Biolegend) was used to determine Pcsk9 in each serum sample following manufacturer's instructions. All serum samples were assayed in triplicate and results were expressed as percentage in Pcsk9 levels compared with Pcsk9 levels of PBS-treated mice.
Background: ELISA stands for enzyme-linked immunosorbent assay.

Data set [4] has as its system proinflammatory cytokines IL-6, INF-G, TNF-α, MCP-1, MIP-1a/MIP-1b. The data set can be described thus: Serum proinflammatory cytokine levels (ELISA) 4 hours after LNP administration. Format: in vivo, BALB/C mice. As to conditions: 0.5 mg/kg fLuc mRNA i.v., serum at 4 hours. As for the experimental part:
The levels of five proinflammatory cytokines present in serum were evaluated at 4 hours after LNP administration for each of the tested concentrations. Briefly, serum samples were prepared as described for liver enzyme analysis and the serum concentration of each cytokine was determined using commercially available ELISA kits (e.g., R&D Systems Quantikine ELISA kits). The levels of the proinflammatory cytokines interleukin-6 (IL-6), interferon gamma (INF-G), tumor necrosis factor alpha (TNF-α), monocyte chemoattractant protein-1 (MCP-1), macrophage inflammatory protein-1 alpha (MIP-1a) in mice treated with LNPs of the present disclosure compared to vehicle treated mice at 4 hours are shown in Table 18.
The levels of five proinflammatory cytokines present in serum were evaluated at 4 hours after LNP administration as described in Example 81. The levels of the proinflammatory cytokines interleukin-6 (IL-6), interferon gamma (INF-G), tumor necrosis factor alpha (TNF-a), monocyte chemoattractant protein-1 (MCP-1), macrophage inflammatory protein-1 beta (MIP-1b) in mice treated with LNPs of the present disclosure are shown in Table 35.
The levels of five proinflammatory cytokines present in serum were evaluated at 4 hours after LNP administration as described in Example 81. The levels of the proinflammatory cytokines interleukin-6 (IL-6), interferon gamma (INF-G), tumor necrosis factor alpha (TNF-a), monocyte chemoattractant protein-1 (MCP-1), macrophage inflammatory protein-1 beta (MIP-1b) in mice treated with LNPs of the present disclosure are shown in Table 38 and Table 39.
The levels of five proinflammatory cytokines present in serum were evaluated at 4 hours after LNP administration as described in Example 81. The levels of the proinflammatory cytokines interleukin-6 (IL-6), interferon gamma (INF-G), tumor necrosis factor alpha (TNF-α), monocyte chemoattractant protein-1 (MCP-1), macrophage inflammatory protein-1 beta (MIP-1b) in mice treated with LNPs of the present disclosure are shown in Table 44.
as §1

Where [5] appears, read: LNP with 43.17 % moles of the compound (DOPC 11.96/Chol 43.17/PEG-DMG 1.7, Lipid:DNA 80).
[6] abbreviates: LNP with 50 % moles of the compound (DOPC 10/Chol 38.5/PEG-DMG 1.5, Lipid:DNA 80).
Where [7] appears, read: DNA LNP with 43.17 % moles of the compound.
Setting [8] is: DNA LNP with 50 % moles of the compound.
The mark [9] stands for this setting: Table 14 experiment, LNP with 43.17 % moles of the compound (Lipid:RNA 80).
[10] abbreviates: Table 14 experiment, LNP with 50 % moles of the compound (Lipid:RNA 80).
The mark [11] stands for this setting: LNP with 40.75 % moles of the compound, fLuc mRNA 0.5 mg/kg i.v.
Where [12] appears, read: LNP with 50 % moles of the compound, fLuc mRNA 0.5 mg/kg i.v.
[13] abbreviates: Table 15 experiment, LNP with 40.75 % moles of the compound (Lipid:RNA 80).
[14] abbreviates: Table 15 experiment, LNP with 50 % moles of the compound (Lipid:RNA 80).
The mark [15] stands for this setting: LNP with 40.8 (40.75) % moles Compound No. 40.
Where [16] appears, read: LNP with 50 % moles Compound No. 40.

Regarding `CCCCC[C@H]1CC[C@H](C(=O)OCC(COC(=O)CCCCCN(CCO)CCCCCC(=O)COC(COC(=O)[C@H]2CC[C@H](CCCCC)CC2)COC(=O)[C@H]2CC[C@H](CCCCC)CC2)COC(=O)[C@H]2CC[C@H](CCCCC)CC2)CC1` [COMPOUND NO. 36], the “Total Flux” value in the data set with liver cells [1] (LNP with 10% DOPC) worked out at 7.52E+07 p/s; in the data set with liver cells [1] (LNP with 10% DSPC), 1.23E+08 p/s; in the data set on liver cells [3] (Example 104, experiment of Table 64, 0.5 mg/kg fLuciferase mRNA intravenous, BLI at 4 hr) it was 3.25E+11 p/s. The “Mean Luciferase Flux” value amounted to 7.99E+07 p/s in the data set on liver cells [1] (setting [5]), 1.82E+08 p/s in the data set on liver cells [1] (setting [6]), 1.31E+11 p/s in the data set on liver cells [3] (setting [9]) and 1.19E+11 p/s in the data set with liver cells [3] (setting [10]). Further, the “% body weight change” value in data set [2] (setting [7]) is −4.9%; in data set [2] (setting [8]), −6.7%. Also, the RNA delivery potency result with liver cells [3] (0.5 mg/kg fLuciferase mRNA in LNP, BLI at 4 hr) is “RNA delivery potency increases with increasing number of cyclohexyl-substituted tails”.
`CCCCC[C@H]1CC[C@H](C(=O)OCC(COC(=O)CCCCCN(CCCO)CCCCCC(=O)COC(COC(=O)[C@H]2CC[C@H](CCCCC)CC2)COC(=O)[C@H]2CC[C@H](CCCCC)CC2)COC(=O)[C@H]2CC[C@H](CCCCC)CC2)CC1` [COMPOUND NO. 37]: the “Total Flux” value in the data set on liver cells [1] (LNP with 10% DOPC) worked out at 7.64E+07 p/s; with liver cells [1] (LNP with 10% DSPC), 1.58E+08 p/s. The “Mean Luciferase Flux” value in the data set on liver cells [1] (setting [5]) amounted to 5.80E+07 p/s; in the data set on liver cells [1] (setting [6]) it was 1.28E+08 p/s; with liver cells [3] (setting [9]), 3.49E+11 p/s; in the data set with liver cells [3] (setting [10]), 3.55E+11 p/s. The “% body weight change” value in data set [2] (setting [7]) was −6.0%; in data set [2] (setting [8]), −10.7%. For the same compound, the “% Pcsk9 compared to control” value in the data set on pcsk9 protein (DSPC:DOPC molar ratio 5%:5% in LNP, 0.5 mg/kg, lipid:RNA 80:1) is 50.4%; in the data set with pcsk9 protein (DSPC:DOPC molar ratio 10%:0% in LNP, 0.5 mg/kg, lipid:RNA 80:1), 39.7%; with pcsk9 protein (LNP dose 0.5 mg/kg, COMPOUND NO. 37:DOPC:Cholesterol:DMG-PEG2000 50:10:38.5:1.5, lipid:RNA 80:1) it was 40.6%; in the data set on pcsk9 protein (LNP dose 1.0 mg/kg, COMPOUND NO. 37:DOPC:Cholesterol:DMG-PEG2000 50:10:38.5:1.5, lipid:RNA 80:1), 23.8%.
In the case of `CCCCCC(=O)OCC1CCC(COC(=O)C(CCCN(CCO)CCCC(C(=O)OCC2CCC(COC(=O)CCCCC)CC2)C(=O)OCC2CCC(COC(=O)CCCCC)CC2)C(=O)OCC2CCC(COC(=O)CCCCC)CC2)CC1` (stereo not shown) [COMPOUND NO. 40], the “% body weight change” value in data set [2] (setting [11]) is −5.5%. Further, in data set [2] (setting [12]), the “% body weight change” value is listed as −2.0%. The “Mean Luciferase Flux” value with liver cells [3] (setting [13]) is on record as 2.20E+10 p/s. In the data set on liver cells [3] (setting [14]), the “Mean Luciferase Flux” value is 1.02E+11 p/s. In addition, in data set [4] (setting [15]), the “IL-6 cytokine fold changes in treated mice relative to untreated mice” value is reported as 0.4 fold, the “INF-G cytokine fold changes in treated mice relative to untreated mice” value is listed as 1.5 fold, the “MCP-1 cytokine fold changes in treated mice relative to untreated mice” value is recorded as 1.6 fold and the “MIP-1a cytokine fold changes in treated mice relative to untreated mice” value was found to be 1.4 fold. In addition, the “TNF-a cytokine fold changes in treated mice relative to untreated mice” value in data set [4] (setting [15]) was determined as 1.0 fold. Also, in data set [4] (setting [16]), the “IL-6 cytokine fold changes in treated mice relative to untreated mice” value came to 0.6 fold, the “INF-G cytokine fold changes in treated mice relative to untreated mice” value was 2.0 fold, the “MCP-1 cytokine fold changes in treated mice relative to untreated mice” value worked out at 5.2 fold and the “MIP-1a cytokine fold changes in treated mice relative to untreated mice” value was determined as 3.8 fold. Moreover, the “TNF-a cytokine fold changes in treated mice relative to untreated mice” value in data set [4] (setting [16]) was determined as 1.1 fold.
`CC(C)CCCC1CCC(COC(=O)C(CCCN(CCO)CCCC(C(=O)OCC2CCC(CCCC(C)C)CC2)C(=O)OCC2CCC(CCCC(C)C)CC2)C(=O)OCC2CCC(CCCC(C)C)CC2)CC1` (stereo not shown) [COMPOUND NO. 42]: the entries for the “% body weight change” value in data set [2] (setting [11]) and in data set [2] (setting [12]) were −2.3% and −4.0%, respectively. Further, the “Mean Luciferase Flux” value in the data set on liver cells [3] (setting [13]) stood at 1.23E+09 p/s; in the data set with liver cells [3] (setting [14]), 8.27E+09 p/s.
